Data from patent publication US12053460B2, “Inhibitors of intracellular invasion” (Meharry Medical College, priority 2016, dated 2024).
“Also recorded” adds a separate entry of the source.

Assays:
[1] = test system: P. gingivalis vesicles; assay: Invasion of P. gingivalis outer membrane vesicles into HOKs (confocal microscopy); settings: for inhibitory efficiency on internalization of P. gingivalis vesicles (comparison of compounds): vs DMSO control; for reduction of the total number of HOKs with intracellular vesicles: vs HOKs unexposed to compound, P<0.001
Description: Human oral keratinocytes (HOKs) were purchased from ScienCell Research Laboratories (Carlsbad, CA) and cultured in specific media, according to the manufacturer's instructions. Prior to treatment, HOKs (2×10^4) were seeded and grown overnight in poly-L-lysine-coated 35 mm glass bottom dishes (MatTek Corporation) at 37° C., 5% CO2, then exposed to P. gingivalis 33277 (2×10^6) or its vesicles (100 ng) for 0 or proper experimental times. To examine the role of Alop1 and dynasore in the bacterial invasion, the compounds were added to the medium 10 min prior to infection.
HOKs were fixed with 3.8% formaldehyde in a sodium phosphate buffer at room temperature for 10 min after treatment, permeabilized with 0.1% Triton X-100 for 10 min, and blocked with 5% bovine serum albumin in PBS for 1 h. HOKs were then immunostained with pan-specific antibodies of P. gingivalis 33277, and α Tubulin or Actin mono-antibodies (Santa Cruz Biotechnology, Dallas, Texas), followed by goat anti-rabbit IgG conjugated to Alex Fluor 546 (Invitrogen). Nuclei were stained with DAPI (Invitrogen). Confocal images were acquired using a Nikon A1R confocal microscope.
For infection rate determination, the number of HOKs with intercellular P. gingivalis cells or its vesicles were determined and divided by the total number of HOKs by counting the cells in 30 random areas (5.6 μm×5.6 μm) under the confocal microscope. Moreover, fluorescence intensity was determined in 100 individual cells using imaging software NIS-Elements AR 4.20, which reflects the level of intercellular P. gingivalis and its vesicles in the infected HOKs.

[2] = test system: P. gingivalis; settings: literature [21]; cited from earlier work
[3] = test system: fimA; assay: Gene expression in P. gingivalis (qRT-PCR); settings: 30 μM, 16 h
[4] = test system: P. gingivalis 33277; assay: Invasion of P. gingivalis cells into HOKs (confocal microscopy); type: cell-based, Porphyromonas gingivalis; settings: for P. gingivalis cell entry into HOKs: vs untreated HOKs
Description: Nuclei were stained with DAPI (Invitrogen).

[5] = test system: P. gingivalis 33277; assay: Exit of intracellular P. gingivalis cells from HOKs; settings: 30 μM, 20 h, with gentamicin and metronidazole
[6] = test system: microtubules in HOKs; assay: Microtubule arrangement in HOKs (anti-α-tubulin staining, confocal microscopy); type: cell-based, human; settings: 30 μM
[7] = test system: actin in HOKs; assay: Actin arrangement in HOKs (anti-actin staining, confocal microscopy); type: cell-based, human; settings: treated for 0, 10, 30 min or 2 h
[8] = after removal of compounds from growth media

| Structure (SMILES) | inhibitory efficiency on internalization of P. gingivalis vesicles (comparison of compounds) ([1]; 30 μM, 2 h) | P. gingivalis invasion of epithelial cells [2] | expression of fimA [3] | reduction of the total number of HOKs with intracellular vesicles ([1]; 6 μM, 2 h) [%] | fluorescence intensity of internalized vesicles in HOKs ([1]; 30 μM, 100 infected HOKs, vs non-exposed HOKs) | reduction of the total number of HOKs with intracellular vesicles ([1]; 30 μM, 2 h) | inhibitory activity on P. gingivalis vesicle invasion of HOKs, dose dependence ([1]; different doses, 2 h) | host cell invasion by P. gingivalis ([4]; at concentrations of 1.2, 6, and 30 μM in vitro) | P. gingivalis cell entry into HOKs [4] | exit of intracellular P. gingivalis from HOKs [5] | reversibility of the effect on microtubule arrangement [6, 8] | start of recovery of microtubule arrangement after compound removal [6, 8] [h] | microtubule arrangement in HOKs ([6]; observed 30 min after treatment) | actin arrangement in HOKs [7] |
| --- | --- | --- | --- | --- | --- | --- | --- | --- | --- | --- | --- | --- | --- | --- |
| C=C1[C@@H](C)[C@H]2[C@H](Cc3ccccc3)NC(=O)[C@]23[C@H](OC(C)=O)/C=C/[C@@](C)(O)C(=O)[C@@H](C)C/C=C/[C@H]3[C@@H]1O [cytochalasin D, reference compound] | significant inhibitory activity was not observed | inhibited P. gingivalis invasion of epithelial cells |  |  |  |  |  |  |  |  |  |  |  |  |
| O=C(N/N=C/c1ccc(O)c(O)c1)c1cc2ccccc2cc1O [dynasore] | highest efficiency |  | specifically inhibited expression of fimA | 40 | significantly lower fluorescence intensity | over 95% | dose-dependent manner | inhibit host cell invasion | effectively block P. gingivalis cell entry into HOKs | no significant change in the fluorescence intensity; also recorded: able to block the bacterial exit from HOKs | reversible | 2 | microtubules became more condensed and formed a cortical outer shell at the cell membrane | alteration of actin arrangement was not detected |
| COC(=O)Nc1nc2ccc(C(=O)c3cccs3)cc2[nH]1 [nocodazole, reference compound] |  | inhibited P. gingivalis invasion of epithelial cells |  |  |  |  |  |  | effectively block P. gingivalis cell entry into HOKs |  |  |  |  |  |
